According to patent US11154477B2, “Use of alkanolamine alkylamides as humectants” (Akzo Nobel Chemicals International B.V., priority 2016, dated 2021):

Legend:
[1] = Dynamic Vapor Sorption (DVS) measurement of water absorption by humectants; format: physicochemical; conditions: for Percentage of water absorbed based on weight of the tested compound: 25° C., equilibrium
Protocol: Dynamic Vapor Sorption (DVS) technique was used to measure the moisture intake of a specific compound at certain humidity level. A DVS Intrinsic instrument manufactured by Surface Measurement Systems UK Ltd. (London, United Kingdom) was used to measure DVS. The following measurement procedure was used to determine the water vapor absorption of a specific compound.
A uniform aqueous solution of a specific, target compound was made at 50% concentration. About 1.2 to 1.6 mg of the prepared aqueous solution was added to DVS instrument at zero tare balance. The temperature was then set at 25° C., and the measurement was performed at various humidity levels. The first measurement was performed at a humidity of 90% to ensure that the sample absorbs the highest level of water in order to minimize the mass transfer barrier during the evaporation process. The typical humidity measurements were then taken at 50%, 40%, 30%, 20%, 10%, and 0% humidity. The dynamics of water absorption was determined by the weight change per minute. If weight change per minute was less than 0.005% of the sample weight, it was deemed that water absorption had reached the equilibrium point. The equilibrium weight at 0% humidity is the sample weight by itself. Thus, the percentage of equilibrium water absorption at various humidity levels was calculated.
Using the above procedure, DVS was used to evaluate water absorption for DGA Acetamide as compared to hydroxyethyl urea and glycerol at different humidity levels.

[2] = system: skin (inner forearm of each panelist); assay: Corneometer measurement of skin moisture after a single application of gel formulation; format: in vivo; conditions: 5 wt % gel, average of eight panelists
Protocol: To prepare a gel formulation, deionized water was added to a 4 oz. tall jar that was set up for mixing using an overhead mixer and a jiffy blade. The water was then mixed at a speed that created a good vortex that nearly reached the bottom of the jar (e.g., about 700 rpm). To this, Carbopol® 940 (cross-linked polyacrylate polymer available from Lubrizol, […], Ohio) was slowly added and mixed for at least 15 minutes until homogeneous. Triethanolamine (TEA) was then added and the mixing speed was adjusted overhead to about 200 rpm and continued mixing for about 10 minutes (e.g., product viscosity increased). To this mixture, 5 wt % of the sample compound in its pure form (or hydroxyethyl urea or glycerol control) was added followed by 0.5 wt % GlydantTM PlusTM (a preservative available from Lonza, Basel, Switzerland) and the remaining, balance water. Mixing was continued at 200 rpm for about 15-20 minutes. The mixture was then removed from the mixer and the final pH was measured. […] Moisture levels were measured using a Corneometer® CM 825 (available from CK Industries) prior to and at various time intervals after the sample application at a temperature of 22° C. and relative humidity of 50%, wherein the corneometer values recorded are the difference between the corneometer reading at a given time and the initial corneometer reading at 0 hours, which is set at zero. […]

Percentage of water absorbed based on weight of the tested compound ([1]; 10% rel. humidity)	Percentage of water absorbed based on weight of the tested compound ([1]; 20% rel. humidity)	Percentage of water absorbed based on weight of the tested compound ([1]; 30% rel. humidity)	Percentage of water absorbed based on weight of the tested compound ([1]; 40% rel. humidity)	Percentage of water absorbed based on weight of the tested compound ([1]; 50% rel. humidity)	water absorption capability (comparison in words) ([1]; 50% relative humidity)	water absorption capability (comparison in words) ([1]; relative humidity levels of 10%, 20% 30%, and 40%)	Structure (SMILES)	humectance performance (corneometer) versus glycerol ([2]; at 24 hours)	corneometer readings versus control (water) formulation ([2]; entire time range tested (24 hours), 22° C., 50% relative humidity)
2.6%	5.9%	9.9%	15.3%	26.9%	on par with glycerol	on par with that for hydroxyethyl urea	CC(=O)NCCOCCO [DGA acetamide, N-acetyl diglycolamine]	same as glycerol	superior to the control formulation
4.6%	8.6%	15.9%	23.3%	27.7%	–	–	OCC(O)CO [Glycerol, glycerol]	–	–
2.4%	5.4%	9.2%	14.1%	19.7%	–	–	NC(=O)NCCO [Hydroxyethyl urea, hydroxyethyl urea]	–	–
